Measured values as given in US9127038B2, “Kisspeptide-pentasaccharide conjugates” (Merck Sharp & Dohme Corp., priority 2011, dated 2015).
Read-outs that look alike come from different tables or passages of the source.

Assays:
[1] = In vitro stability in human serum (LC/MS/MS); conditions: human
Protocol: Test compound is added to 1.5 mL human serum in a 96-wells deepwell plate in a final concentration of 750 nM. The compound is mixed and immediately thereafter a 100 μl sample is harvested in a 96-wells 2D-tuberack (T=0 sample). The 2 D-tubes are closed with rubber tube caps and the sample plate is stored at −20° CF. in the freezer. The deepwell plate is put into an incubator which was set at humidified (95%) atmosphere at 5-7% CO2 and 37° C. for an incubation period of maximum 240 h. During this incubation period, samples of 100 μl are collected on various time intervals, dependent on the test compound used; time points 0, 1, 2, 3, 6, 24, 48, 72 h in case of Kisspeptides and 0, 3, 6, 24, 48, 72, 168, 240 h in case of kisspeptide-pentasaccharide conjugates. Sample plates are put on ice in case of sampling and stored at −20° C. until analysis by LC/MS/MS.
For LC-MS/MS analysis, the compounds are separated over an XTerra RP8 column and using a gradient mobile phase of ammonium acetate buffer and acetonitrile at a fixed column temperature. MS/MS detection is done with a triple quadrupole mass spectrometer and employing negative ion electrospray ionization. The mass spectrometer is set up to achieve a known degree of in source fragmentation, where the initially formed multiply charged negative ions lose one or more SO3 molecules. The most abundant of these secondary ions are then subjected to a common MS/MS experiment in which a single SO3 loss is monitored. The Q1 and Q3 mass filter settings for this MS/MS experiment have commonly been determined in method development. […] Internal standardization is accomplished by adding a different conjugate of approximately the same size to the bioanalytical samples.
The rate of compound loss is expressed as a half-life (plasma t^1/2). The t^1/2 for the test compound can be determined by plotting the natural logarithm (In) of the measured concentrations against time and fitting the line through all data points. The gradient of this line is the first order rate constant (k) for substrate disappearance and is determined by regression analysis. The rate constant is converted to a half-life according to the following equation: In vitro half-life(t^1/2)=−ln 2/k

human KISS-receptor = molecular target: T1, human KISS-receptor (Homo sapiens, UniProt Q969F8); test: NFAT-regulated luciferase reporter gene assay in CHO-k1 cells, agonist activity; format: cell-based
T1 construct: expressed in transfected cells; host or cells: CHO-k1 cells that also express mitochondrially targeted aequorin, Gα16 and an NFAT-luciferase reporter
T1 sequence (Q969F8 whole entry): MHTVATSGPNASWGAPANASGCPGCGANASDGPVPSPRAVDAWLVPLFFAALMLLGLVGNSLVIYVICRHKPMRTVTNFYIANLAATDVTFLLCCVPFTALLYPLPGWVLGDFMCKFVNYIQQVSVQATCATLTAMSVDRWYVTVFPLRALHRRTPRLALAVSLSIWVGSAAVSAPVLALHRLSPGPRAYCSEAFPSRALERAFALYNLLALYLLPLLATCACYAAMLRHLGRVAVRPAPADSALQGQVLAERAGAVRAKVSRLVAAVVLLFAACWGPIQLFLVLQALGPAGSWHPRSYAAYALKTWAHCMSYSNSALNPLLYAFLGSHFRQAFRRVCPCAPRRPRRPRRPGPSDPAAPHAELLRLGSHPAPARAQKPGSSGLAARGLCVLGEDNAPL
Protocol: CHO-k1 cells were used that expressed the mitochondrially targeted aequorine and Gα16 (from Euroscreen, Brussels, Belgium), a Nuclear Factor of Activated T-cells-responsive element (NFAT) under the control of a promoter directing the expression of a firefly luciferase reporter gene (pNFAT-TALuc obtained from Clontech, Mountain View, Calif.), and the human GPR54-R Hygro(+)-hGPR54WT c4; MSD). These cells were cultured in Dulbecco's Modified Eagle Medium: Nutrient Mixture F-12 (DMEM/F12) (Invitrogen, Carlsbad, Calif.), supplemented with 10% (vol/vol) filtered bovine serum (Hyclone, Thermo Fisher Scientific, Waltham, Mass.), 100 U/ml penicillin G, 100 μg/ml streptomycin, 400 μg/ml Geneticin and 400 μg/ml Hygromycin (Invitrogen). […] Kisspeptin-10 was used as a standard. […] When the conjugates were tested in the presence of a final percentage of 20% human serum, 10 μl assay medium containing 60% human serum (Sigma-Aldrich, #H4522) was added to the wells. In the absence of human serum, 10 μl of assay medium was added. Cells were harvested and diluted to a concentration of 7.5E5 cells/ml in assay medium without 0.1% BSA. 10 μl of cell solution was added to the compound wells. After incubation for 4 hours in a humidified atmosphere at 5% CO2 and 37° C., the plate was left at room temperature for 30 minutes. Subsequently, 15 μl of Steadylite™ solution (PerkinElmer, Boston, Mass.) was added and the cells, protected from light, were allowed to lyse for 30 min at room temperature. Luminescence, indicated as relative luminescence units (RLU), was measured on an Envision Multilabel reader (PerkinElmer).

[2] = absence of human serum, read-out: pEC50 (converted)
[3] = presence of 20% human serum, read-out: pEC50 serum (converted)

SMILES | half-life at 750 nM [1] | EC50 (human KISS-receptor; [2]) | EC50 (human KISS-receptor; [3]) | EC50 (human KISS-receptor; pEC50, absence of human serum) | EC50 (human KISS-receptor; pEC50 serum, presence of 20% human serum)
CNC(=N)NCCC[C@H](NC(=O)[C@H](CC(C)C)NC(=O)NNC(=O)[C@H](Cc1ccccc1)NC(=O)[C@@H](NC(=O)[C@H](CC(N)=O)NC(=O)[C@H](Cc1c[nH]c2ccccc12)NC(=O)[C@H](CC(N)=O)NC(=O)[C@@H](Cc1ccc(O)cc1)NC(=O)CCOCCOCCOCCOCCn1cc(CCC(=O)NCCOCCOCCOCCO[C@H]2[C@H](OC)[C@@H](OC)[C@@H](O[C@H]3[C@H](OC)[C@@H](OC)[C@H](O[C@H]4[C@H](OS(=O)(=O)O)[C@@H](OS(=O)(=O)O)[C@@H](O[C@H]5[C@H](OC)[C@@H](OC)[C@H](O[C@H]6[C@H](OS(=O)(=O)O)[C@@H](OS(=O)(=O)O)[C@@H](OC)O[C@@H]6COS(=O)(=O)O)O[C@H]5C(=O)O)O[C@@H]4COS(=O)(=O)O)O[C@@H]3C(=O)O)O[C@@H]2COS(=O)(=O)O)nn1)C(C)O)C(=O)N[C@@H](Cc1ccccc1)C(N)=O (some centres unmarked) [Conjugate C11] | > 240 h |  |  |  | 
CNC(=N)NCCC[C@H](NC(=O)[C@H](CC(C)C)n1cc(CNC(=O)[C@H](Cc2ccccc2)NC(=O)[C@@H](NC(=O)[C@H](CC(N)=O)NC(=O)[C@H](Cc2c[nH]c3ccccc23)NC(=O)[C@H](CC(N)=O)NC(=O)[C@@H](Cc2ccc(O)cc2)NC(=O)CCCCn2cc(CCC(=O)NCCOCCOCCOCCO[C@H]3[C@H](OC)[C@@H](OC)[C@@H](O[C@H]4[C@H](OC)[C@@H](OC)[C@H](O[C@H]5[C@H](OS(=O)(=O)O)[C@@H](OS(=O)(=O)O)[C@@H](O[C@H]6[C@H](OC)[C@@H](OC)[C@H](O[C@H]7[C@H](OC)[C@@H](OS(=O)(=O)O)[C@@H](OC)O[C@@H]7COS(=O)(=O)O)O[C@H]6C(=O)O)O[C@@H]5COS(=O)(=O)O)O[C@@H]4C(=O)O)O[C@@H]3COS(=O)(=O)O)nn2)[C@@H](C)O)nn1)C(=O)N[C@@H](Cc1ccccc1)C(N)=O [Conjugate C18] | 233 h |  |  |  | 
CNC(=N)NCCC[C@H](NC(=O)[C@H](CC(C)C)NC(=O)NNC(=O)[C@H](Cc1ccccc1)NC(=O)[C@@H](NC(=O)[C@H](CC(N)=O)NC(=O)[C@@H]1C[C@@H](O)CN1C(=O)[C@@H](Cc1ccc(O)cc1)NC(=O)CCOCCOCCOCCOCCn1cc(CCC(=O)NCCOCCOCCOCCOCC(=O)NCCOCCOCCOCCO[C@H]2[C@H](OC)[C@@H](OC)[C@@H](O[C@H]3[C@H](OC)[C@@H](OC)[C@H](O[C@H]4[C@H](OS(=O)(=O)O)[C@@H](OS(=O)(=O)O)[C@@H](O[C@H]5[C@H](OC)[C@@H](OC)[C@H](O[C@H]6[C@H](OS(=O)(=O)O)[C@@H](OS(=O)(=O)O)[C@@H](OC)O[C@@H]6COS(=O)(=O)O)O[C@H]5C(=O)O)O[C@@H]4COS(=O)(=O)O)O[C@@H]3C(=O)O)O[C@@H]2COS(=O)(=O)O)nn1)[C@@H](C)O)C(=O)N[C@@H](Cc1c[nH]c2ccccc12)C(N)=O [Conjugate C33] |  | 0.0589 nM | 0.912 nM |  | 
CO[C@H]1O[C@H](COS(=O)(=O)O)[C@@H](O[C@@H]2O[C@@H](C(=O)O)[C@@H](O[C@H]3O[C@H](COS(=O)(=O)O)[C@@H](O[C@@H]4O[C@H](C(=O)O)[C@@H](O[C@H]5O[C@H](COS(=O)(=O)O)[C@@H](OCCOCCOCCOCCNC(=O)CCc6cn(CCCCC(=O)N[C@H](Cc7ccc(O)cc7)C(=O)N7C[C@H](O)C[C@H]7C(=O)N[C@@H](CC(N)=O)C(=O)N[C@H](C(=O)N[C@@H](Cc7ccccc7)C(=O)NNC(=O)N[C@@H](CC(C)C)C(=O)N[C@@H](CCCNC(=N)N)C(=O)N[C@@H](Cc7c[nH]c8ccccc78)C(N)=O)[C@@H](C)O)nn6)[C@H](OC)[C@H]5OC)[C@H](OC)[C@H]4OC)[C@H](OS(=O)(=O)O)[C@H]3OS(=O)(=O)O)[C@H](OC)[C@H]2OC)[C@H](OC)[C@H]1OS(=O)(=O)O [Conjugate C36] |  | 0.0126 nM | 0.0912 nM |  | 
CO[C@H]1O[C@H](COS(=O)(=O)O)[C@@H](O[C@@H]2O[C@@H](C(=O)O)[C@@H](O[C@H]3O[C@H](COS(=O)(=O)O)[C@@H](O[C@@H]4O[C@H](C(=O)O)[C@@H](O[C@H]5O[C@H](COS(=O)(=O)O)[C@@H](OCCOCCOCCOCCNC(=O)CCc6cn(CCCCC(=O)N[C@H](Cc7ccc(O)cc7)C(=O)N7C[C@H](O)C[C@H]7C(=O)N[C@@H](CC(N)=O)C(=O)N[C@H](C(=O)N[C@@H](Cc7ccccc7)C(=O)NNC(=O)N[C@@H](CC(C)C)C(=O)N[C@@H](CCCNC(=N)N)C(=O)N[C@@H](Cc7c[nH]c8ccccc78)C(N)=O)[C@@H](C)O)nn6)[C@H](OC)[C@H]5OC)[C@H](OC)[C@H]4OC)[C@H](OS(=O)(=O)O)[C@H]3OS(=O)(=O)O)[C@H](OC)[C@H]2OC)[C@H](OS(=O)(=O)O)[C@H]1OS(=O)(=O)O [Conjugate C37] |  | 0.0126 nM | 1.15 nM |  | 
CO[C@H]1O[C@H](COS(=O)(=O)O)[C@@H](O[C@@H]2O[C@@H](C(=O)O)[C@@H](O[C@H]3O[C@H](COS(=O)(=O)O)[C@@H](O[C@@H]4O[C@H](C(=O)O)[C@@H](O[C@H]5O[C@H](COS(=O)(=O)O)[C@@H](OCCOCCOCCOCCNC(=O)CCc6cn(CCCCC(=O)N[C@H](Cc7ccc(O)cc7)C(=O)N7C[C@H](O)C[C@H]7C(=O)N[C@@H](CC(N)=O)C(=O)N[C@H](C(=O)N[C@@H](Cc7ccccc7)C(=O)NCC(=O)N[C@@H](CC(C)C)C(=O)N[C@@H](CCCNC(=N)N)C(=O)N[C@@H](Cc7c[nH]c8ccccc78)C(N)=O)[C@@H](C)O)nn6)[C@H](OC)[C@H]5OC)[C@H](OC)[C@H]4OC)[C@H](OS(=O)(=O)O)[C@H]3OS(=O)(=O)O)[C@H](OC)[C@H]2OC)[C@H](OC)[C@H]1OS(=O)(=O)O [Conjugate C38] |  | 0.0427 nM | 0.316 nM |  | 
CO[C@H]1O[C@H](COS(=O)(=O)O)[C@@H](O[C@@H]2O[C@@H](C(=O)O)[C@@H](O[C@H]3O[C@H](COS(=O)(=O)O)[C@@H](O[C@@H]4O[C@H](C(=O)O)[C@@H](O[C@H]5O[C@H](COS(=O)(=O)O)[C@@H](OCCOCCOCCOCCNC(=O)CCc6cn(CCCCC(=O)N[C@H](Cc7ccc(O)cc7)C(=O)N7C[C@H](O)C[C@H]7C(=O)N[C@@H](CC(N)=O)C(=O)N[C@H](C(=O)N[C@@H](Cc7ccccc7)C(=O)NCC(=O)N[C@@H](CC(C)C)C(=O)N[C@@H](CCCNC(=N)N)C(=O)N[C@@H](Cc7c[nH]c8ccccc78)C(N)=O)[C@@H](C)O)nn6)[C@H](OC)[C@H]5OC)[C@H](OC)[C@H]4OC)[C@H](OS(=O)(=O)O)[C@H]3OS(=O)(=O)O)[C@H](OC)[C@H]2OC)[C@H](OS(=O)(=O)O)[C@H]1OS(=O)(=O)O [Conjugate C39] |  | 0.0646 nM | 2.69 nM |  | 
CO[C@H]1O[C@H](COS(=O)(=O)O)[C@@H](O[C@@H]2O[C@@H](C(=O)O)[C@@H](O[C@H]3O[C@H](COS(=O)(=O)O)[C@@H](O[C@@H]4O[C@H](C(=O)O)[C@@H](O[C@H]5O[C@H](COS(=O)(=O)O)[C@@H](OCCOCCOCCOCCNC(=O)CCc6cn(CCOCCOCCOCCOCCC(=O)N[C@@H](Cc7ccc(O)cc7)C(=O)N7C[C@H](O)C[C@H]7C(=O)N[C@@H](CC(N)=O)C(=O)N[C@H](C(=O)N[C@@H](Cc7ccccc7)C(=O)NNC(=O)N[C@@H](CC(C)C)C(=O)N[C@@H](CCCNC(=N)N)C(=O)N[C@@H](Cc7c[nH]c8ccccc78)C(N)=O)[C@@H](C)O)nn6)[C@H](OC)[C@H]5OC)[C@H](OC)[C@H]4OC)[C@H](OS(=O)(=O)O)[C@H]3OS(=O)(=O)O)[C@H](OC)[C@H]2OC)[C@H](OC)[C@H]1OS(=O)(=O)O [Conjugate C40] |  |  |  | 0.347 nM | 1.66 nM
